Experimental findings from ChEMBL document CHEMBL3621157, “Design, synthesis and biological evaluation of novel 1,2,4-triazolo and 1,2,4-triazino[4,3-a]quinoxalines as potential anticancer and antimicrobial agents” (2015) are described below.

Values after ≈ are worked out from the molar mass of the structure shown.

Holding throughout (type): functional
The subject of one experiment is NCI-H226. The experiment can be described thus: Growth inhibition of human NCI-H226 cells at 10 uM incubated for 48 hrs by sulforhodamine B assay. The conditions noted are these: NCI-H226, 48 h, read-out: GI.
Experiment [1] concerns Candida albicans. The experiment can be described thus: Antimicrobial activity against Candida albicans DSM 70014 incubated for 48 hrs by two-fold serial broth dilution method. The conditions noted are these: DSM 70014, 48 h.
The subject of experiment [2] is Escherichia coli. The experiment can be described thus: Antimicrobial activity against Escherichia coli ATCC 11775 incubated for 24 hrs by two-fold serial broth dilution method. The conditions noted are these: ATCC 11775, 24 h. For orientation: In broth dilution the organism is exposed to a series of concentrations in liquid medium.
Experiment [3] concerns Staphylococcus aureus. As to the kind of experiment: Antimicrobial activity against Staphylococcus aureus DSM 1104 incubated for 24 hrs by two-fold serial broth dilution method. The conditions noted are these: DSM 1104, 24 h.
Experiment [4] relates to Pseudomonas aeruginosa. As to the kind of experiment: Antimicrobial activity against Pseudomonas aeruginosa ATCC 10145 incubated for 24 hrs by two-fold serial broth dilution method. The conditions noted are these: ATCC 10145, 24 h.
In experiment [5] the test system is Candida albicans. As to the kind of experiment: Antimicrobial activity against Candida albicans DSM 70014 incubated at 37 degC for 48 hrs by cup diffusion method.
Experiment [6] has as its system Bacillus subtilis. The experiment can be described thus: Antimicrobial activity against Bacillus subtilis ATCC 6633 incubated for 24 hrs by two-fold serial broth dilution method. The conditions noted are these: ATCC 6633, 24 h.
For experiment [7], the system named is Pseudomonas aeruginosa. The experiment can be described thus: Antimicrobial activity against Pseudomonas aeruginosa ATCC 10145 incubated for 24 hrs followed by transfer of colonies to Muller-Hinton agar plate and measured after 18 hrs by two-fold serial broth dilution method.
Experiment [8] has as its system Candida albicans. The experiment can be described thus: Antimicrobial activity against Candida albicans DSM 70014 incubated for 48 hrs followed by transfer of colonies to Muller-Hinton agar plate and measured after 18 hrs by two-fold serial broth dilution method.
Experiment [9] concerns Escherichia coli. The experiment can be described thus: Antimicrobial activity against Escherichia coli ATCC 11775 incubated for 24 hrs followed by transfer of colonies to Muller-Hinton agar plate and measured after 18 hrs by two-fold serial broth dilution method.
Experiment [10] in a line: Growth inhibition of human NCI-ADR-RES cells at 10 uM incubated for 48 hrs by sulforhodamine B assay. The conditions noted are these: read-out: GI. In general terms: In SRB staining, fixed cells bind dye roughly in proportion to their protein.
Experiment [11] concerns Staphylococcus aureus. The experiment can be described thus: Antimicrobial activity against Staphylococcus aureus DSM 1104 incubated for 24 hrs followed by transfer of colonies to Muller-Hinton agar plate and measured after 18 hrs by two-fold serial broth dilution method.
Experiment [12] has as its system Bacillus subtilis. As to the kind of experiment: Antimicrobial activity against Bacillus subtilis ATCC 6633 incubated for 24 hrs followed by transfer of colonies to Muller-Hinton agar plate and measured after 18 hrs by two-fold serial broth dilution method.
Experiment [13] relates to Escherichia coli. As to the kind of experiment: Antimicrobial activity against Escherichia coli ATCC 11775 incubated at 37 degC for 24 hrs by cup diffusion method.
The next experiment relates to SNB-75. As to the kind of experiment: Growth inhibition of human SNB75 cells at 10 uM incubated for 48 hrs by sulforhodamine B assay. The conditions noted are these: SNB-75, 48 h, read-out: GI.
Experiment [14] concerns Pseudomonas aeruginosa. As to the kind of experiment: Antimicrobial activity against Pseudomonas aeruginosa ATCC 10145 incubated at 37 degC for 24 hrs by cup diffusion method.
The nature of experiment [15]: Growth inhibition of human HOP92 cells at 10 uM incubated for 48 hrs by sulforhodamine B assay. The conditions noted are these: HOP-92, 48 h, read-out: GI.
The test system of experiment [16] is Staphylococcus aureus. The experiment can be described thus: Antimicrobial activity against Staphylococcus aureus DSM 1104 incubated at 37 degC for 24 hrs by cup diffusion method.
For experiment [17], the system named is Bacillus subtilis. The experiment can be described thus: Antimicrobial activity against Bacillus subtilis ATCC 6633 incubated at 37 degC for 24 hrs by cup diffusion method.
The test system of another experiment is CAKI-1. The experiment can be described thus: Growth inhibition of human Caki1 cells at 10 uM incubated for 48 hrs by sulforhodamine B assay. The conditions noted are these: CAKI-1, 48 h, read-out: GI.
A further experiment has as its system HT-29. The experiment can be described thus: Growth inhibition of human HT-29 cells at 10 uM incubated for 48 hrs by sulforhodamine B assay. The conditions noted are these: HT-29, 48 h, read-out: GI.
The test system of a further experiment is NCI-H23. As to the kind of experiment: Growth inhibition of human NCI-H23 cells at 10 uM incubated for 48 hrs by sulforhodamine B assay. The conditions noted are these: NCI-H23, 48 h, read-out: GI.
For another experiment, the system named is A549. The experiment can be described thus: Growth inhibition of human A549 cells at 10 uM incubated for 48 hrs by sulforhodamine B assay. The conditions noted are these: A549, 48 h, read-out: GI.
The test system of the next experiment is MDA-MB-231. As to the kind of experiment: Growth inhibition of human MDA-MB-231 cells at 10 uM incubated for 48 hrs by sulforhodamine B assay. The conditions noted are these: MDA-MB-231, 48 h, read-out: GI.
Experiment [18] in a line: Growth inhibition of human EKVX cells at 10 uM incubated for 48 hrs by sulforhodamine B assay. The conditions noted are these: read-out: GI.
A short description of experiment [19]: Growth inhibition of human RXF393 cells at 10 uM incubated for 48 hrs by sulforhodamine B assay. The conditions noted are these: RXF 393, 48 h, read-out: GI.
In a further experiment the test system is HCT-116. The experiment can be described thus: Growth inhibition of human HCT116 cells at 10 uM incubated for 48 hrs by sulforhodamine B assay. The conditions noted are these: HCT-116, 48 h, read-out: GI.
The test system of the next experiment is HCT-15. The experiment can be described thus: Growth inhibition of human HCT15 cells at 10 uM incubated for 48 hrs by sulforhodamine B assay. The conditions noted are these: HCT-15, 48 h, read-out: GI.
The next experiment deals with PC-3. The experiment can be described thus: Growth inhibition of human PC3 cells at 10 uM incubated for 48 hrs by sulforhodamine B assay. The conditions noted are these: PC-3, 48 h, read-out: GI.
A further experiment relates to SF-268. The experiment can be described thus: Growth inhibition of human SF268 cells at 10 uM incubated for 48 hrs by sulforhodamine B assay. The conditions noted are these: SF-268, 48 h, read-out: GI.
Another experiment deals with UO-31. The experiment can be described thus: Growth inhibition of human UO31 cells at 10 uM incubated for 48 hrs by sulforhodamine B assay. The conditions noted are these: UO-31, 48 h, read-out: GI.
The test system of the next experiment is NCI-H522. The experiment can be described thus: Growth inhibition of human NCI-H522 cells at 10 uM incubated for 48 hrs by sulforhodamine B assay. The conditions noted are these: NCI-H522, 48 h, read-out: GI.
The next experiment concerns OVCAR-3. The experiment can be described thus: Growth inhibition of human OVCAR3 cells at 10 uM incubated for 48 hrs by sulforhodamine B assay. The conditions noted are these: OVCAR-3, 48 h, read-out: GI.

As for `Cc1nnc2c(Cc3ccccc3)nc3ccccc3n12`, the inhibition of growth at 10 µM in the experiment on NCI-H226 was 15.1%; in experiment [10] it was 12.6%; with SNB-75 it was 21.9%; in experiment [15], 17.6%. Moreover, the MIC with Candida albicans [1] was found to be 100 µg/mL (≈ 365 µM); in the experiment with Escherichia coli [2] it was 50 µg/mL (≈ 182 µM); in the experiment with Staphylococcus aureus [3], 50 µg/mL (≈ 182 µM); in the experiment on Pseudomonas aeruginosa [4], 100 µg/mL (≈ 365 µM); in the experiment on Bacillus subtilis [6], 50 µg/mL (≈ 182 µM). Further, the “inhibition zone (IZ)” value with Candida albicans [5] is 14 mm; in the experiment on Escherichia coli [13], 12 mm; in the experiment with Pseudomonas aeruginosa [14], 11 mm; in the experiment with Staphylococcus aureus [16], 12 mm; in the experiment on Bacillus subtilis [17], 13 mm. Moreover, the MBC against Pseudomonas aeruginosa [7] is 100 µg/mL (≈ 365 µM); against Escherichia coli [9], 50 µg/mL (≈ 182 µM); with Staphylococcus aureus [11] it was 100 µg/mL (≈ 365 µM); with Bacillus subtilis [12] it was 100 µg/mL (≈ 365 µM). Further, the MFC against Candida albicans [8] turned out to be 200 µg/mL (≈ 729 µM).
Turning to `Nc1cc(-c2ccc(Cl)cc2)nn1-c1nc2ccccc2nc1Cc1ccccc1`, the inhibition of growth at 10 µM is 19.3% with CAKI-1; 15.7% in the experiment with NCI-H226; 30.3% in the experiment on HT-29; 18.5% in the experiment with NCI-H23; 22% in the experiment on A549; 24.9% in the experiment with MDA-MB-231. The inhibition of growth at 10 µM came to 21.4% in experiment [18]; 21.3% in experiment [19]; 27.2% in the experiment with HCT-116; 25.6% with HCT-15; 15.6% in the experiment on SNB-75. The MIC against Candida albicans [1] was 50 µg/mL (≈ 121 µM); against Escherichia coli [2], 100 µg/mL (≈ 243 µM); against Staphylococcus aureus [3], 100 µg/mL (≈ 243 µM); with Pseudomonas aeruginosa [4] it was 50 µg/mL (≈ 121 µM); in the experiment with Bacillus subtilis [6], 100 µg/mL (≈ 243 µM). Also, the “inhibition zone (IZ)” value was 16 mm with Candida albicans [5]; 16 mm in the experiment with Escherichia coli [13]; 12 mm in the experiment on Pseudomonas aeruginosa [14]; 14 mm in the experiment with Staphylococcus aureus [16]; 15 mm in the experiment with Bacillus subtilis [17]. In addition, the MBC came out at 50 µg/mL (≈ 121 µM) in the experiment with Pseudomonas aeruginosa [7], 100 µg/mL (≈ 243 µM) in the experiment with Escherichia coli [9], 100 µg/mL (≈ 243 µM) in the experiment with Staphylococcus aureus [11] and 100 µg/mL (≈ 243 µM) in the experiment on Bacillus subtilis [12]. For the same compound, the minimal fungicidal concentration (MFC) in the experiment with Candida albicans [8] stood at 50 µg/mL (≈ 121 µM).
Take `O=C(O)c1ccccc1-c1nnc2c(Cc3ccccc3)nc3ccccc3n12`: the inhibition of growth at 10 µM in the experiment with PC-3 is 43.9%; in the experiment on SF-268 it was 14.1%; in the experiment with UO-31 it was 18%; with NCI-H522, 14.6%; in the experiment on OVCAR-3 it was 20.2%; in the experiment with SNB-75 it was 24.4%. Further, the MIC against Candida albicans [1] was determined as 25 µg/mL (≈ 65.7 µM); against Escherichia coli [2] it was 25 µg/mL (≈ 65.7 µM); against Staphylococcus aureus [3], 100 µg/mL (≈ 263 µM); in the experiment with Pseudomonas aeruginosa [4] it was 100 µg/mL (≈ 263 µM); against Bacillus subtilis [6], 100 µg/mL (≈ 263 µM). In addition, the “inhibition zone (IZ)” value in the experiment with Candida albicans [5] worked out at 14 mm; in the experiment on Escherichia coli [13] it was 15 mm; in the experiment on Pseudomonas aeruginosa [14] it was 12 mm; in the experiment on Staphylococcus aureus [16], 14 mm; in the experiment with Bacillus subtilis [17], 16 mm. The MBC against Pseudomonas aeruginosa [7] was 100 µg/mL (≈ 263 µM); with Escherichia coli [9], 50 µg/mL (≈ 131 µM); with Staphylococcus aureus [11], 200 µg/mL (≈ 526 µM); in the experiment with Bacillus subtilis [12], 100 µg/mL (≈ 263 µM). In the experiment with Candida albicans [8], this compound displayed an MFC of 50 µg/mL (≈ 131 µM).

What is called MIC is the lowest concentration found to suppress growth. Read a high MIC as a less susceptible organism. As a reminder, the MBC is the smallest concentration meeting the test's criterion for killing. Read a low MBC as more potent killing. What is called MFC is the lowest tested concentration that kills the fungus rather than only halting it.
